What all share (type): biochemical
For one assay, the target named is T1, TYK2 (Homo sapiens, UniProt P29597).
T1 construct: made in house; host or cells: SF9 insect cells (baculovirus)
T1 sequence (P29597 873-1187): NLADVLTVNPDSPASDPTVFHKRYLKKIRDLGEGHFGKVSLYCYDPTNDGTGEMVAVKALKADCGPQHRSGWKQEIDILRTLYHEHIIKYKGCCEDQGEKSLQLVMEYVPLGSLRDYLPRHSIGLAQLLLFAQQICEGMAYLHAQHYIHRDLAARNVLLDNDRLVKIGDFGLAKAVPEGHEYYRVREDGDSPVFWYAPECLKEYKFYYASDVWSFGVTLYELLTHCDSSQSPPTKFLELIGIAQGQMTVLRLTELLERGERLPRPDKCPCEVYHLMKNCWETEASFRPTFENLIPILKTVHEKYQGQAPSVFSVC
The experiment in a line: TYK2 inhibition (Table 4).

The next assay deals with T2, JAK2 (Homo sapiens, UniProt O60674).
T2 construct: made in house; host or cells: SF9 insect cells (baculovirus)
As to the kind of experiment: JAK2 inhibition (Table 4). The settings on record: read-out: JAK2 Ki.

For another assay, the target named is T3, JAK3 (Homo sapiens, UniProt P52333).
T3 construct: made in house; host or cells: SF9 insect cells (baculovirus)
As to the kind of experiment: JAK3 inhibition (Table 4). Particulars: read-out: JAK3 Ki.

T3 sequence (P52333 783-1124): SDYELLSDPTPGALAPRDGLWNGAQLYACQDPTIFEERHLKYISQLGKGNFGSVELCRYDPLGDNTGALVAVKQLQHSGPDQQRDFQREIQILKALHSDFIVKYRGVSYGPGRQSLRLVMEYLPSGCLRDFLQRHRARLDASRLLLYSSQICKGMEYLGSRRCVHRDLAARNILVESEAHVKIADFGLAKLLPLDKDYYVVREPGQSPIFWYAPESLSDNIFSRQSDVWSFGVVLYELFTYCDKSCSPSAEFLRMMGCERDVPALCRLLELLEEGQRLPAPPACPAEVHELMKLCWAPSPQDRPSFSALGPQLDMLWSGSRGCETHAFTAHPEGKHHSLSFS
T2 sequence (O60674 812-1132): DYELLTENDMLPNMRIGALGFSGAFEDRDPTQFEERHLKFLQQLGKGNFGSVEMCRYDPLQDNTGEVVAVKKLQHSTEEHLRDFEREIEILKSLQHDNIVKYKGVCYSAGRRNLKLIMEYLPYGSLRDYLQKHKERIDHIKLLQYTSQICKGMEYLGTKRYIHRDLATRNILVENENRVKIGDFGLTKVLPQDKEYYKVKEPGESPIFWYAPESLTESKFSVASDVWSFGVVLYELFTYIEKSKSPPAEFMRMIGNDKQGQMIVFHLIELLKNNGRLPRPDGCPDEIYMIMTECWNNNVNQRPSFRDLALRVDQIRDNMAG

As for `N#Cc1ccnc(N2CCC(n3cnc4cnc5[nH]ccc5c43)CC2)c1` [Example 96, 4-(6H-1,3,5,6-Tetraaza-as-indacen-1-yl)-3,4,5,6-tetrahydro-2H-[1,2′]bipyridinyl-4′-carbonitrile], the figures for the Ki on TYK2, on JAK2 and at JAK3 were 90 nM, 19.7 nM and 115 nM, respectively.

As to `CS(=O)(=O)N[C@H]1CC[C@H](n2cnc3cnc4[nH]ccc4c32)CC1` [Example 105, Trans N-[4-(6H-1,3,5,6-tetraaza-as-indacen-1-yl)-cyclohexyl]-methanesulfonamide], the Ki came out at 16.4 nM at TYK2, 3.53 nM on JAK2 and 23.1 nM on JAK3.

Take `CC(C)(C)OC(=O)N[C@H]1CC[C@H](n2cnc3cnc4[nH]ccc4c32)CC1` [Example 107, Trans [4-(6H-1,3,5,6-tetraaza-as-indacen-1-yl)-cyclohexyl]-carbamic acid tert-butyl ester]: the Ki at TYK2 was 216 nM; at JAK2, 20 nM; on JAK3, 132 nM.

With `N[C@H]1CC[C@H](n2cnc3cnc4[nH]ccc4c32)CC1` [Example 108, Trans 4-(6H-1,3,5,6-tetraaza-as-indacen-1-yl)-cyclohexylamine], the Ki was 75.2 nM at TYK2, 24.6 nM at JAK2 and 35 nM on JAK3.

On to `CC(C)(C)OC(=O)N[C@@H]1CC[C@@H](n2cnc3cnc4[nH]ccc4c32)C1` [Example 134, [(1R,3R)-3-(6H-1,2,3,5,6-Tetraaza-as-indacen-1-yl)-cyclopentyl]-carbamic acid tert-butyl ester], for which the Ki on TYK2 stood at 62.4 nM; on JAK2, 4.21 nM; at JAK3, 32.8 nM.

Regarding `CC(C)(C)OC(=O)N[C@@H]1CC[C@H](n2cnc3cnc4[nH]ccc4c32)C1` [Example 135, [(1R,3S)-3-(6H-1,2,3,5,6-Tetraaza-as-indacen-1-yl)-cyclopentyl]-carbamic acid tert-butyl ester], the Ki on TYK2 turned out to be 161 nM; on JAK2, 20.3 nM; at JAK3 it was 90.6 nM.

Turning to `CC(C)(C)OC(=O)N[C@H]1CC[C@@H](n2cnc3cnc4[nH]ccc4c32)C1` [Example 136, [(1S,3R)-3-(6H-1,2,3,5,6-Tetraaza-as-indacen-1-yl)-cyclopentyl]-carbamic acid tert-butyl ester], the Ki turned out to be 147 nM on TYK2, 18.3 nM at JAK2 and 291 nM at JAK3.

Consider `COC(=O)N(C)[C@H]1CC[C@H](n2cnc3cnc4[nH]ccc4c32)CC1` [Example 143, Trans Methyl-[4-(6H-1,2,3,5,6-tetraaza-as-indacen-1-yl)-cyclohexyl]-carbamic acid methyl ester], for which the Ki is 51.2 nM at TYK2, 7.03 nM at JAK2 and 182 nM at JAK3.

For `FC(F)(F)CN1CCC(n2cnc3cnc4[nH]ccc4c32)CC1` [Example 175, 1-[1-(2,2,2-Trifluoro-ethyl)-piperidin-4-yl]-1,6-dihydro-1,2,3,5,6-tetraaza-as-indacene], the figures for the Ki at TYK2, on JAK2 and at JAK3 were 19.2 nM, 4.6 nM and 38.1 nM, respectively.

Take `CS(=O)(=O)NCc1nc2cnc3[nH]ccc3c2n1C1CCCCC1` [Example 200, N-(1-Cyclohexyl-1,6-dihydro-1,2,3,5,6-tetraaza-as-indacen-2-ylmethyl)-methanesulfonamide]: the Ki came to 19.3 nM at TYK2, 45.4 nM on JAK2 and 75.1 nM on JAK3.

As to `CS(=O)(=O)NCc1nc2cnc3[nH]ccc3c2n1C1CCN(Cc2ccccc2)CC1` [Example 202, N-[1-(1-Benzyl-piperidin-4-yl)-1,6-dihydro-1,2,3,5,6-tetraaza-as-indacen-2-ylmethyl]-methanesulfonamide], the Ki at TYK2 stood at 831 nM; at JAK2, 44.6 nM; on JAK3, 60.3 nM.

`CS(=O)(=O)NCc1nc2cnc3[nH]ccc3c2n1C1CCNCC1` [Example 206, N-(1-Piperidin-4-yl-1,6-dihydro-1,2,3,5,6-tetraaza-as-indacen-2-ylmethyl)-methanesulfonamide]: the Ki came to 565 nM on TYK2, 812 nM at JAK2 and 3050 nM at JAK3.

With `CS(=O)(=O)NCc1nc2cnc3[nH]ccc3c2n1C1CCN(CCC#N)CC1` [Example 208, N-{1-[1-(2-Cyano-ethyl)-piperidin-4-yl]-1,6-dihydro-1,2,3,5,6-tetraaza-as-indacen-2-ylmethyl}-methanesulfonamide], the Ki came to 151 nM on TYK2, 43.1 nM at JAK2 and 171 nM on JAK3.

In the case of `N#Cc1cccc(CN[C@H]2CC[C@H](n3cnc4cnc5[nH]ccc5c43)CC2)c1` [Example 219, 3-{[4-(6H-1,3,5,6-Tetraaza-as-indacen-1-yl)-cyclohexylamino]-methyl}-benzonitrile], the Ki at TYK2 is 37.3 nM; at JAK2 it was 11.2 nM; on JAK3, 89 nM.

Consider `CN1CCC[C@@H]1C(=O)N1CCC(n2cnc3cnc4[nH]ccc4c32)CC1` [Example 252, ((R)-1-Methyl-pyrrolidin-2-yl)-[4-(6H-1,3,5,6-tetraaza-as-indacen-1-yl)-piperidin-1-yl]-methanone], for which the Ki amounted to 973 nM at TYK2, 285 nM at JAK2 and 1280 nM on JAK3.

Take `N#CCCN[C@H]1CC[C@H](n2cnc3cnc4[nH]ccc4c32)CC1` [Example 275, 3-[4-(6H-1,3,5,6-Tetraaza-as-indacen-1-yl)-cyclohexylamino]-propionitrile]: the Ki on TYK2 was determined as 36.4 nM; at JAK2, 11.5 nM; at JAK3 it was 47.4 nM.

In the case of `CC(C)(C)OC(=O)N[C@H]1CC[C@@H](n2cnc3cnc4[nH]ccc4c32)CC1` [Example 288, [4-(6H-1,3,5,6-Tetraaza-as-indacen-1-yl)-cyclohexyl]-carbamic acid tert-butyl ester], the results for the Ki at TYK2, on JAK2 and on JAK3 were 110 nM, 11.9 nM and 206 nM, respectively.

Consider `N[C@H]1CC[C@@H](n2cnc3cnc4[nH]ccc4c32)CC1` [Example 289, 4-(6H-1,3,5,6-Tetraaza-as-indacen-1-yl)-cyclohexylamine], for which the Ki on TYK2 amounted to 107 nM; on JAK2, 80.2 nM; at JAK3, 79.5 nM.

Take `COC(=O)N[C@H]1CC[C@H](n2cnc3cnc4[nH]ccc4c32)CC1` [Example 311, [4-(6H-1,3,5,6-Tetraaza-as-indacen-1-yl)-cyclohexyl]-carbamic acid methyl ester]: the figures for the Ki at TYK2, at JAK2 and at JAK3 were 59.8 nM, 14.1 nM and 91.6 nM, respectively.

On to `CC1(n2cnc3cnc4[nH]ccc4c32)CCNCC1` [Example 318, 1-(4-Methyl-piperidin-4-yl)-1,6-dihydro-1,3,5,6-tetraaza-as-indacene], for which the figures for the Ki on TYK2, at JAK2 and at JAK3 were 1900 nM, 1100 nM and 976 nM, respectively.

Take `N#CCCN[C@H]1CC[C@@H](n2cnc3cnc4[nH]ccc4c32)CC1` [Example 319, 3-[4-(6H-1,3,5,6-Tetraaza-as-indacen-1-yl)-cyclohexylamino]-propionitrile]: the Ki on TYK2 is 77.8 nM; at JAK2, 31.2 nM; on JAK3, 82.9 nM.

Turning to `CS(=O)(=O)N[C@H]1CC[C@@H](n2cnc3cnc4[nH]ccc4c32)CC1` [Example 321, N-[4-(6H-1,3,5,6-Tetraaza-as-indacen-1-yl)-cyclohexyl]-methanesulfonamide], the figures for the Ki on TYK2, at JAK2 and on JAK3 were 38.5 nM, 9.47 nM and 56.1 nM, respectively.

A word on the Ki: it is the dissociation constant of the complex between target and ligand, obtained from inhibition or displacement.
